Like-named read-outs stand apart in the source and are kept apart here.
Experiments:
[1] = test system: Lewis lung carcinoma cell line; assay: Lewis lung carcinoma (LLC) cells implanted in Socs3f/f and Socs3 Nestin ko mice, tumor growth curves; assay type: in vivo, mouse
[2] = test system: tumor associated macrophages; assay: FACS analysis of tumor macrophage populations (M1, M2, TIDC); assay type: in vivo, mouse
Text: The impact of the above-recited modes of Socs3 modulation upon monocyte differentiation was examined (FIGS. 20-26), employing FACS analysis of monocyte populations (FIG. 20 provides an overview of the FACS approach, where green cells were positively charged and therefore sorted towards an anode plate while negatively charged red cells were sorted toward a […]).

Socs3 = Socs3 levels after naringenin administration to tumor-bearing mice; assay type: in vivo, mouse
Text: The surprising efficacy of localized Socs3 overexpression in reducing tumor growth prompted interest in identifying compounds capable of up-regulating Socs3. One candidate molecule for up-regulation of Socs3 was Naringenin, a flavanone compound. […] Naringenin administration was also observed to have shrunk tumors at the day 12-13 timepoint examined, with 100% of tumors of Socs3f/f mice and 60% of tumors in Socs3 nestin conditional knockout mice observed to have shrunk at day 13 of the timecourse (FIGS. 18B and 18C).

tumors = assay: FACS of immune cells isolated from tumors treated with Naringenin or vehicle control; assay type: in vivo
Method: FIG. 45 is a series of plots quantifying the tumor volume, total tumor cells isolated from tumors, total CD45 positive cells and percentage of CD45 positive cells vs. total cells in control- or Naringenin-treated tumors. 1,2,3,4,5 represents the individual tumor in each group. In order to determine whether Naringenin influences the infiltrating of different immune cell types into tumors, fluorescence-activated cell sorting (FACS) was conducted on cells isolated from tumors treated with Naringenin or vehicle control.

[3] = test system: B16F10-Luciferase Melanoma cell line; assay type: in vivo, mouse
LLC tumor = assay type: in vivo, mouse; settings: as compared to PBS-treated controls
Text: The effect of donepezil treatment was also examined in wild-type, heterozygote alpha-7 AChR knockout mice and homozygote alpha-7 AChR knockout mice (FIG. 40A).

tumor cell = settings: mouse, in vivo
[4] = agent administered to model mice, versus control animals

Molecule: O=C1NC[C@@]2(CN3CCC2CC3)O1 [AR-R17779, (2S)-2′H-spiro[4-azabicyclo[2.2.2]octane-2,5′-[1,3]oxazolidin]-2′-one]
- tumor growth, LLC tumor cells [1, 4]: significantly prevented tumor growth
- tumor size ([1]; day 10 post-implantation in model mice): decreased tumor size
- M1 macrophage levels ([2]; Socs3 neuronal deficient tumor): promoted M1 macrophage levels
- M2 macrophage levels ([2]; Socs3 neuronal deficient tumor): not promoting M2 macrophage levels
- M1 macrophage levels ([2]; wild-type tumor): promoted M1 macrophage levels
- M2 macrophage levels ([2]; wild-type tumor): did not change M2 macrophage levels

Molecule: O=C1C[C@@H](c2ccc(O)cc2)Oc2cc(O)cc(O)c21 [Naringenin]
- tumors observed to have shrunk, Socs3f/f mice ([1]; day 13 of the timecourse, Socs3f/f mice): 100%
- tumors observed to have shrunk, Socs3 nestin conditional knockout mice ([1]; day 13 of the timecourse, Socs3 nestin conditional knockout mice): 60%
- tumor growth, naringenin administration ([1]; treatment administered on day 4, Socs3-containing and Socs3 nestin conditional knockout mice): significantly decreased tumor growth
- M1 macrophage levels ([2]; Socs3 neuronal deficient tumor): promote M1 macrophage levels
- M2 macrophage levels ([2]; Socs3 neuronal deficient tumor): reducing M2 macrophage levels
- M1 macrophage levels ([2]; wild-type tumor): promoted M1 macrophage levels
- M2 macrophage levels ([2]; wild-type tumor): did not change M2 macrophage levels
- Socs3 levels (Socs3): increased Socs3 levels
- population of CD4+ T cells in the tumors (tumors; Naringenin treatment): did not change
- percentage of CD45+ γδ T cells (tumors; Naringenin-treated group): increased
- CD8+ T cell recruitment into tumors (tumors; Naringenin-treated tumors): variations
- percentage of natural killer (NK) cells of CD45+ cells (tumors; compared to the control-treated group): higher
- tumors, based on tumor volume and total cells isolated from the entire tumors (tumors; compared with control group): significantly suppressed

Molecule: COc1cc2c(cc1OC)C(=O)C(CC1CCN(Cc3ccccc3)CC1)C2 (stereo not shown) [donepezil]
- tumor growth, B16F10 tumor cells [3, 4]: prevented tumor growth
- tumor growth, LLC tumor cells [1, 4]: prevented tumor growth
- F4/80+/CD11c+ (M1 macrophage) cells ([2]; mouse, in vivo): expanded population
- TIDC population (CD45+; F4/80+; CD11c+ cells) ([2]; mouse, in vivo): expanded
- tumor growth rate, homozygous alpha-7 AChR knockout mice (LLC tumor): robust reduction of tumor growth rate
- tumor growth, heterozygote alpha-7 AChR knockout mice (LLC tumor): significant reduction in tumor growth

Molecule: Botulinum toxin [Botox]
- tumor growth, nestin-conditional Socs3 knockout mice (tumor cell): no additional effect on tumor growth
- tumor growth, wild-type mice (tumor cell): effectively mimicked the tumor growth effect of nestin-conditional Socs3 knockout
- tumor seeding (tumor cell): promoted tumor seeding

Molecule: alpha-bungarotoxin [a-BTX]
- tumor growth, B16F10 tumor cells ([3]; mouse, in vivo): promoted tumor growth
- tumor growth, LLC tumor cells ([1]; mouse, in vivo): promoted tumor growth
- TIDC population (CD45+; F4/80+; CD11c+ cells) ([2]; mouse, in vivo): contracted
